Series [1] can be described thus: physchem. The settings on record: for logD: octanol/tris buffer. It is filed as physicochemical. Here is the method: Bestimmung des Oktanol-Wasser-Verteilungskoeffizienten P
Zu 1 ml einer 2-10 µmol/l Lösung der Anthracycline in oktanol-gesättigtem Tris-Puffer, pH 7, wurde 1 ml puffer-gesättigtes Oktanol gegeben und für etwa 1 h bei Raumtemperatur geschüttelt. Die wässrige Phase wurde anschliessend entnommen und die Substanzkonzentration in einem Fluoreszenzphotometer durch Vergleich mit Proben bekannter Konzentration bestimmt. Die Konzentration in der organischen Phase wurde durch Subtraktion der in der wässrigen Phase gefundenen Konzentration von der gesamten eingesetzten Konzentration ermittelt. Der Verteilungskoeffizient wurde berechnet nach der Formel: [formula]

Series [2] has as its system resistente L1210 Zellen. Nature of the series: Proliferation test: cytotoxicity on adriamycin-resistant L1210 cells. It is filed as cell-based. The settings on record: resistant line grown by repeated 1 h incubation with rising Adriamycin concentrations. From the text:
(§1) Die Züchtung von adriamycin-resistenten L1210 Zellen erfolgte durch regelmäßig wiederholte, einstündige Inkubation von sensitiven L1210 Zellen mit steigenden Konzentrationen an Adriamycin bis ein Resistenzgrad (IC₅₀ resistente L1210/IC₅₀ sensitive L1210) gegenüber Adriamycin von etwa 80 erreicht war.

Series [3] deals with sensitive L1210 Leukämiezellen. In words: Adriamycin uptake in sensitive L1210 cells with and without a lipophilic anthracycline (HPLC/fluorescence). Conditions: for Adriamycinaufnahme (in % der unbehandelten Kontrolle ohne Zusatz) L1210: 1 h, 37°C, sensitive L1210. It is filed as cell-based. Here is the method: (§2) Zur Bestimmung der Adriamycinaufnahme wurden sensitive oder resistente Zellen (2 x 10⁵/ml) in dem Zellkulturmedium RPMI 1640 für 1h bei 37°C mit Adriamycin in Gegenwart und Abwesenheit eines lipophilen Anthracyclins inkubiert. Die Zellsuspension (5 ml) wurde danach zentrifugiert (1 min, 2000 g), das Zellpellet zweimal mit kalter phosphat-gepufferter Kochsalzlösung gewaschen und anschließend durch Zugabe von 100 µl ^RTriton X-100, 800 µl DNAse (Sigma, FRG) und 100 µl internem Standard (Daunomycin, 1 µg/ml) lysiert. Adriamycin und interner Standard wurden mit Hilfe von mit C18-Alkylresten derivatisiertem Kieselgel gefüllten Säulen (Bondelut C18, Analytichem) angereichert.
(§3) Nach Aktivierung dieser Säulen mit Methanol und Waschen mit doppelt destilliertem Wasser wurden die Proben auf die Säulen gegeben. Anschließend wurde mit doppelt destilliertem Wasser gewaschen und das gebundene Material mit 2 ml Chloroform/Methanol (2:1; v:v) eluiert. Nach dem Abdampfen des Lösungsmittelgemisches unter einem Stickstoffstrom wurden die Rückstände in jeweils 100 µl eines Gemisches aus 3 Teilen Acetonitril und 7 Teilen 20 mmol/l wässriger Phosphorsäure, pH 3 ("mobile Phase") gelöst. Die Auftrennung der Probenbestandteile erfolgte mit Hilfe der Hochdruckflüssigkeitschromatographie (20 µl Probe) über eine mit Nucleosil C18 (Partikelgrüße 5 µm) gefüllte Säule (12.5 x 0.46 cm).
(§4) Zur Detektion wurde ein Fluoreszenzdetektor bei einer Exitations- bzw. Emissionswellenlänge von 495 bzw. 590 nm verwendet. Die quantitative Analyse von Adriamycin erfolgte mit Hilfe eines Integrators durch Bestimmung der Peakflächen unter Berücksichtigung der wiedergefundenen Menge an internem Standard und Vergleich mit Proben, die bekannte Mengen an Adriamycin enthielten.

Series [4] concerns resistente L1210 Leukämiezellen. In words: Adriamycin uptake in adriamycin-resistant L1210 cells with and without a lipophilic anthracycline (HPLC/fluorescence). The format is cell-based. Conditions: for Adriamycin-Aufnahme in adriamycinresistente L1210-Leukämiezellen: result in words, no concentration given; for Adriamycinaufnahme (in % der unbehandelten Kontrolle ohne Zusatz) resistente L1210: 1 h, 37°C, resistant L1210. Here is the method: as §1, §2, §3, §4

The test system of series [5] is nicht resistente L1210 Leukämiezellen. In words: Proliferation test: cytotoxicity of Adriamycin on non-resistant L1210 cells with a lipophilic anthracycline present. It is filed as cell-based. The settings on record: influence of the added lipophilic anthracycline; result in words.
The mark [6] stands for this setting: pH 7, statement in text, room temperature (20°C) in b7, read-out: Oktanol-Wasser Verteilungskoeffizient P (converted).
The mark [7] stands for this setting: pH 7, octanol / Tris buffer pH 7, room temperature, * means greater than, read-out: P (converted).

The structures appear in SMILES notation. Where two headings read alike, the source gives them in different places.

For the molecule `COc1cccc2c1C(=O)c1c(O)c3c(c(O)c1C2=O)C[C@@](O)(C(=O)CO)C[C@@H]3O[C@H]1C[C@H](N)[C@H](O)[C@H](C)O1` [Doxorubicin], in series [1] (setting [6]), the logD was less than 1. For the same molecule, the “Resistenzgrad (IC₅₀ resistente L1210/IC₅₀ sensitive L1210)” value in series [2] is roughly 80.
Take `COc1cccc2c1C(=O)c1c(O)c3c(c(O)c1C2=O)C[C@@](O)(C(=O)CO)C[C@@H]3O[C@H]1C[C@H](N)[C@@H](O)[C@H](C)O1` [Epirubicin]: the logD in series [1] (setting [6]) is less than 1.
In the case of `CC[C@@]1(O)C[C@H](O[C@H]2C[C@H](N(C)C)[C@H](O[C@H]3C[C@H](O)[C@H](O[C@H]4CCC(=O)[C@H](C)O4)[C@H](C)O3)[C@H](C)O2)c2c(cc3c(c2O)C(=O)c2c(O)cccc2C3=O)[C@H]1C(=O)OC` [ACM, Aclacinomycin], the logD in series [1] (setting [7]) is 2.28; in series [1] (setting [6]), roughly 2.3. Also, the “Adriamycin-Aufnahme in sensitive L1210 Zellen” value in series [3] (result in words, no concentration given) was “nicht durch Aclacinomycin beeinflußt”. The “Adriamycin-Aufnahme in adriamycinresistente L1210-Leukämiezellen” value in series [4] is “Erhöhung”. For the same molecule, the “zytotoxische Wirkung von Adriamycin auf nicht resistente L1210 Leukämiezellen” value in series [5] was “nur schwach im Sinne einer additiven Wirkung beeinflußt”.
Turning to `CC[C@@]1(O)C[C@H](O)c2c(O)c3c(c(O)c2[C@H]1O)C(=O)c1cccc(O)c1C3=O` [ß-Rhodomycinon], the “Oktanol-Wasser Verteilungskoeffizient P” value in series [1] (room temperature (20°C) in b7) was greater than 100. Also, the “Adriamycinaufnahme (in % der unbehandelten Kontrolle ohne Zusatz) L1210” value in series [3] (anthracycline 1 µg/ml) and in series [3] (anthracycline 10 µg/ml) was 96% in each case. Besides, the results for the “Adriamycinaufnahme (in % der unbehandelten Kontrolle ohne Zusatz) resistente L1210” value in series [4] (anthracycline 1 µg/ml) and in series [4] (anthracycline 10 µg/ml) were 116% and 186%, respectively. Also, in series [4], the “Adriamycin-Aufnahme in adriamycinresistente L1210-Leukämiezellen” value is “vergleichbare”.
As to `CCCCCN(C)[C@H]1C[C@H](O[C@H]2C[C@](O)(CC)[C@H](O)c3c(O)c4c(c(O)c32)C(=O)c2c(O)cccc2C4=O)O[C@@H](C)[C@H]1O` [3'-N-Pentyl-3'-N-methyl-7-O-alpha-L-Daunosaminyl-ß-rhodomycinon], the “Adriamycinaufnahme (in % der unbehandelten Kontrolle ohne Zusatz) L1210” value is 87% in series [3] (anthracycline 1 µg/ml) and 95% in series [3] (anthracycline 10 µg/ml). Also, the results for the “Adriamycinaufnahme (in % der unbehandelten Kontrolle ohne Zusatz) resistente L1210” value in series [4] (anthracycline 1 µg/ml) and in series [4] (anthracycline 10 µg/ml) were 166% and 209%, respectively.
`CC[C@@]1(O)CCc2c(O)c3c(c(O)c2[C@H]1O)C(=O)c1cccc(O)c1C3=O` [gamma-Rhodomycinon]: in series [1] (room temperature (20°C) in b7), the “Oktanol-Wasser Verteilungskoeffizient P” value is given as greater than 100. For the same molecule, the “Adriamycin-Aufnahme in adriamycinresistente L1210-Leukämiezellen” value in series [4] is “vergleichbare”.
In the case of `CC[C@@]1(O)C[C@H](O)c2c(O)c3c(c(O)c2[C@H]1C(=O)OC)C(=O)c1cccc(O)c1C3=O` [epsilon-Rhodomycinon], the logD in series [1] (setting [7]) is greater than 3.
Consider `CC[C@@]1(O)C[C@H](O)c2c(O)c3c(c(O)c2[C@H]1C(=O)OC)C(=O)c1c(O)ccc(O)c1C3=O` [epsilon-iso-Rhodomycinon], for which, in series [1] (room temperature (20°C) in b7), the “Oktanol-Wasser Verteilungskoeffizient P” value was greater than 100. For the same molecule, the “Adriamycinaufnahme (in % der unbehandelten Kontrolle ohne Zusatz) L1210” value in series [3] (anthracycline 1 µg/ml) is 90%; in series [3] (anthracycline 10 µg/ml), 87%. Moreover, the entries for the “Adriamycinaufnahme (in % der unbehandelten Kontrolle ohne Zusatz) resistente L1210” value in series [4] (anthracycline 1 µg/ml) and in series [4] (anthracycline 10 µg/ml) were 146% and 144%, respectively. Besides, the “Adriamycin-Aufnahme in adriamycinresistente L1210-Leukämiezellen” value in series [4] was “vergleichbare”.
Regarding `COc1cccc2c1C(=O)c1c(O)c3c(c(O)c1C2=O)C[C@@](O)(C(C)=O)C[C@@H]3O[C@H]1C[C@H](N)[C@H](O)[C@H](C)O1` [Daunomycin], the results for the logD in series [1] (setting [7]) and in series [1] (setting [6]) were 0.653 and less than 1, respectively.
With `CCCCCCN(C)[C@H]1C[C@H](O[C@H]2C[C@](O)(CC)[C@H](O)c3c(O)c4c(c(O)c32)C(=O)c2c(O)cccc2C4=O)O[C@@H](C)[C@H]1O` [3'-N-Hexyl-3'-N-methyl-7-O-alpha-L-Daunosaminyl-ß-rhodomycinon], the “Adriamycinaufnahme (in % der unbehandelten Kontrolle ohne Zusatz) L1210” value in series [3] (anthracycline 1 µg/ml) and in series [3] (anthracycline 10 µg/ml) was 97% each time. Also, the “Adriamycinaufnahme (in % der unbehandelten Kontrolle ohne Zusatz) resistente L1210” value in series [4] (anthracycline 1 µg/ml) and in series [4] (anthracycline 10 µg/ml) was 197% throughout.

Source of the values: patent EP0280167A2, “Use of lipophile anthracyclines for the secondary treatment of anthracycline-resistant tumors, composition containing a lipophile anthracycline and preparation thereof” (BEHRINGWERKE Aktiengesellschaft, priority 1987, dated 1988).
